Patent US9018224B2, “Substituted cyclopropyl compounds useful as GPR119 agonists” (Merck Sharp & Dohme Corp., priority 2011, dated 2015)

Target: T1, human GPR119 (Homo sapiens, UniProt Q8TDV5)
T1 sequence (Q8TDV5 1-308 limits assumed): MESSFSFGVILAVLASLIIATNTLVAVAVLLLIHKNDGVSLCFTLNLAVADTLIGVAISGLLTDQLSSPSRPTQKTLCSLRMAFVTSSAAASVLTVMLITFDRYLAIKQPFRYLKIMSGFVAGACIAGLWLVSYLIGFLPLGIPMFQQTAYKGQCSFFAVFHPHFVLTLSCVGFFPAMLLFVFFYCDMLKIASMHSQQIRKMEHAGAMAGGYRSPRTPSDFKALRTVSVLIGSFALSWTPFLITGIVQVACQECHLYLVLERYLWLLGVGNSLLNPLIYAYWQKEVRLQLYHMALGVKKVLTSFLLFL
Experiment: Measurement of GPR119 signaling by cAMP (LANCE cAMP kit or HTRF) in HEK293 cells transfected with human GPR119
Format: cell-based
Conditions: agonist cAMP response in HEK293 cells stably transfected with human GPR119; patent does not say which of the two cAMP formats (LANCE or HTRF)
In short: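 LANCE TR-FRET cAMP readout; detection with Eu-SA/biotin-cAMP tracer for 3 h, signal converted to cAMP via standard curve, duplicates, 4-parameter fit vs DMSO basal and internal agonist maximum.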

Row | Compound | EC50
1 | CCOCc1cnc(N2CCC([C@H]3C[C@H]3CCOc3ccc(CC(=O)N4CC(O)C4)c(F)c3)CC2)nc1 [Example 199, 2-(4-{2-[(1S,2R)-2-{1-[5-(ethoxymethyl)pyrimidin-2-yl]piperidin-4-yl}cyclopropyl]ethoxy}-2-fluorophenyl)-1-(3-hydroxyazetidin-1-yl)ethanone] | 1.9 nM
2 | COc1cnc(N2CCC([C@H]3C[C@H]3CCOc3ccc(CC(=O)N4CCC4)c(F)c3)CC2)nc1 [Example 37] | 0.94 nM
3 | O=C(Cc1ccc(OCC[C@@H]2C[C@@H]2C2CCN(c3ncc(Cl)cn3)CC2)cc1F)NC1(C(F)(F)F)CC1 [Example 87] | 3.6 nM
4 | COCc1cnc(N2CCC([C@H]3C[C@H]3CCOc3ccc(CC(=O)N4CC(C)C4)cc3)CC2)nc1 [Example 14] | 5.5 nM
5 | Cc1n[nH]c2c1CN(C(=O)Cc1ccc(OCC[C@@H]3C[C@@H]3C3CCN(c4ncc(Cl)cn4)CC3)cc1F)CC2 [Example 140] | 3.2 nM
6 | O=C(Cc1ccc(OCC[C@@H]2C[C@@H]2C2CCN(c3ncc(Cl)cn3)CC2)cc1F)N1CCc2nccnc2C1 [Example 125] | 0.96 nM
7 | CC1CCN(C(=O)Cc2ccc(OCC[C@@H]3C[C@@H]3C3CCN(c4ncc(Cl)cn4)CC3)cc2F)CC1 [Example 99] | 4 nM
8 | O=C(Cc1ccc(OCC[C@@H]2C[C@@H]2C2CCN(c3ncc(Cl)cn3)CC2)cc1F)N1CCc2sc(C(F)(F)F)nc2C1 [Example 186] | 1.7 nM
9 | CCc1cnc(N2CCC([C@H]3C[C@H]3CCOc3ccc(CC(=O)N4CCC4)cn3)CC2)nc1 [Example 241, 1-(azetidin-1-yl)-2-[6-(2-{(1S,2R)-2-[1-(5-ethylpyrimidin-2-yl)piperidin-4-yl]cyclopropyl}ethoxy)pyridin-3-yl)ethanone] | 7.4 nM
10 | O=C(Cc1ccc(OCC[C@@H]2C[C@@H]2C2CCN(c3ncc(Cl)cn3)CC2)cc1F)NCC(F)(F)F [Example 79] | 1.6 nM
11 | CN(CC1CCOCC1)C(=O)Cc1ccc(OCC[C@@H]2C[C@@H]2C2CCN(c3ncc(Cl)cn3)CC2)cc1F [Example 157] | 2.4 nM
12 | CC1CCC(C)N1C(=O)Cc1ccc(OCC[C@@H]2C[C@@H]2C2CCN(c3ncc(Cl)cn3)CC2)cc1F (stereo partly drawn) [Example 90] | 7.2 nM
13 | O=C(Cc1ccc(OCC[C@@H]2C[C@@H]2C2CCN(c3ncc(Cl)cn3)CC2)cc1F)N1CCCc2[nH]nc(C3CC3)c21 [Example 196] | 5.4 nM
14 | CC1(O)CCN(C(=O)Cc2ccc(OCC[C@@H]3C[C@@H]3C3CCN(c4ncc(Cl)cn4)CC3)cc2F)C1 (stereo partly drawn) [Example 74] | 4.2 nM

The next molecules have a lower EC50 than those just listed; values first:

Row | EC50 | Compound
15 | 0.29 nM | COc1cnc(N2CCC([C@H]3C[C@H]3CCOc3cc(F)c(CC(=O)N4CCOCC4)c(F)c3)CC2)nc1 [Example 215]
16 | 0.6 nM | CC1c2nc(C(F)(F)F)nn2CCN1C(=O)Cc1ccc(OCC[C@@H]2C[C@@H]2C2CCN(c3ncc(Cl)cn3)CC2)cc1F (stereo partly drawn) [Example 177]
17 | 0.26 nM | CCOc1cnc(N2CCC([C@H]3C[C@H]3CCOc3cc(F)c(CC(=O)N4CCOCC4)c(F)c3)CC2)nc1 [Example 235]
18 | 0.2 nM | COCc1cnc(N2CCC([C@H]3C[C@H]3CCOc3cc(F)c(CC(=O)N4CCCC4)c(F)c3)CC2)nc1 [Example 228]
19 | 0.19 nM | O=C(Cc1ccc(OCC[C@@H]2C[C@@H]2C2CCN(c3ncc(Cl)cn3)CC2)cc1F)N1CCC1 [Example 60, 1-(azetidin-1-yl)-2-[4-(2-{(1S,2R)-2-[1-(5-chloropyrimidin-2-yl)piperidin-4-yl]cyclopropyl}ethoxy)-2-fluorophenyl]ethanone]
20 | 0.33 nM | O=C(Cc1ccc(OCC[C@@H]2C[C@@H]2C2CCN(c3ncc(Cl)cn3)CC2)cc1F)N1CC(F)C1 [Example 68]
21 | 0.07 nM | COc1cnc(N2CCC([C@H]3C[C@H]3CCOc3cc(F)c(CC(=O)N4CC(F)(F)C4)c(F)c3)CC2)nc1 [Example 217]
